In ChEMBL document CHEMBL4138175, “Newly designed organotin(IV) carboxylates with peptide linkage: Synthesis, structural elucidation, physicochemical characterizations and pharmacological investigations” (Eur J Med Chem, 2018):
≈ marks a conversion by molar mass, not a printed value. Calls of active or inactive are those of the source. The calls are words filed in the database; no cut-off is given here.

How the values were obtained:
BHK-21 [1] = assay: Cytotoxicity against golden hamster BHK21 cells at 100 uM after 48 hrs by sulforhodamine B assay; format: cell-based, Mesocricetus auratus; details: bhk-21, 48 h
BHK-21 [2] = assay: Cytotoxicity against golden hamsterBHK21 cells at 10 uM after 48 hrs by sulforhodamine B assay; format: cell-based, Mesocricetus auratus; details: hamster, bhk-21, 48 h
NCI-H157 [3] = assay: Cytotoxicity against human NCI-H157 cells at 1 uM after 48 hrs by sulforhodamine B assay; format: functional
BHK-21 [4] = assay: Cytotoxicity against golden hamster BHK21 cells at 1 uM after 48 hrs by sulforhodamine B assay; format: cell-based, Mesocricetus auratus; details: bhk-21, 48 h
NCI-H157 [5] = assay: Cytotoxicity against human NCI-H157 cells after 48 hrs by sulforhodamine B assay; format: functional, cell-based
[6] = test system: Agrobacterium tumefaciens; assay: Antitumor activity against Agrobacterium tumefaciens-induced tumor after 21 days by potato disc bioassay technique; format: functional
HepG2 = assay: Cytotoxicity against human HepG2 cells by MTT assay; format: functional, cell-based
NCI-H157 [7] = assay: Cytotoxicity against human NCI-H157 cells at 100 uM after 48 hrs by sulforhodamine B assay; format: functional
NCI-H157 [8] = assay: Cytotoxicity against human NCI-H157 cells at 10 uM after 48 hrs by sulforhodamine B assay; format: functional
NCI-H157 [9] = assay: Cytotoxicity against human NCI-H157 cells at 0.1 uM after 48 hrs by sulforhodamine B assay; format: functional
BHK-21 [10] = assay: Cytotoxicity against golden hamster BHK21 cells after 48 hrs by sulforhodamine B assay; format: cell-based, Mesocricetus auratus; details: bhk-21, 48 h
BHK-21 [11] = assay: Cytotoxicity against golden hamster BHK21 cells at 0.1 uM after 48 hrs by sulforhodamine B assay; format: cell-based, Mesocricetus auratus; details: bhk-21, 48 h
Streptococcus pyogenes [12] = assay: Antibacterial activity against Streptococcus pyogenes assessed as zone of inhibition by measuring activity index after 24 to 48 hrs by well diffusion method relative to tetracycline; format: functional, organism-based
Staphylococcus aureus [13] = assay: Antibacterial activity against Staphylococcus aureus assessed as zone of inhibition by measuring activity index after 24 to 48 hrs by well diffusion method relative to tetracycline; format: functional, organism-based
Klebsiella pneumoniae [14] = assay: Antibacterial activity against Klebsiella pneumoniae assessed as zone of inhibition after 24 to 48 hrs by well diffusion method; format: functional
Klebsiella pneumoniae [15] = assay: Antibacterial activity against Klebsiella pneumoniae assessed as zone of inhibition by measuring activity index after 24 to 48 hrs by well diffusion method relative to penicillin G; format: functional, organism-based
[16] = test system: Staphylococcus epidermidis; assay: Antibacterial activity against Staphylococcus epidermidis assessed as zone of inhibition by measuring activity index after 24 to 48 hrs by well diffusion method relative to penicillin G; format: functional, organism-based
Leishmania major [17] = assay: Antileishmanial activity against Leishmania major promastigotes at 0.1 uM after 72 hrs by MTT assay relative to control; format: functional
Pseudomonas aeruginosa [18] = assay: Antibacterial activity against Pseudomonas aeruginosa assessed as zone of inhibition after 24 to 48 hrs by well diffusion method; format: functional
Streptococcus pyogenes [19] = assay: Antibacterial activity against Streptococcus pyogenes assessed as zone of inhibition after 24 to 48 hrs by well diffusion method; format: functional
Staphylococcus aureus [20] = assay: Antibacterial activity against Staphylococcus aureus assessed as zone of inhibition by measuring activity index after 24 to 48 hrs by well diffusion method relative to amoxicillin; format: functional, organism-based
[21] = test system: Staphylococcus epidermidis; assay: Antibacterial activity against Staphylococcus epidermidis assessed as zone of inhibition after 24 to 48 hrs by well diffusion method; format: functional
Streptococcus pyogenes [22] = assay: Antibacterial activity against Streptococcus pyogenes assessed as zone of inhibition by measuring activity index after 24 to 48 hrs by well diffusion method relative to amoxicillin; format: functional, organism-based
Streptococcus pyogenes [23] = assay: Antibacterial activity against Streptococcus pyogenes assessed as zone of inhibition by measuring activity index after 24 to 48 hrs by well diffusion method relative to penicillin G; format: functional, organism-based
Staphylococcus aureus [24] = assay: Antibacterial activity against Staphylococcus aureus assessed as zone of inhibition by measuring activity index after 24 to 48 hrs by well diffusion method relative to ampicillin; format: functional, organism-based
Serratia marcescens [25] = assay: Antibacterial activity against Serratia marcescens assessed as zone of inhibition by measuring activity index after 24 to 48 hrs by well diffusion method relative to ampicillin; format: functional
Staphylococcus aureus [26] = assay: Antibacterial activity against Staphylococcus aureus assessed as zone of inhibition by measuring activity index after 24 to 48 hrs by well diffusion method relative to penicillin G; format: functional, organism-based
Pseudomonas aeruginosa [27] = assay: Antibacterial activity against Pseudomonas aeruginosa assessed as zone of inhibition by measuring activity index after 24 to 48 hrs by well diffusion method relative to ampicillin; format: functional, organism-based
Leishmania major [28] = assay: Antileishmanial activity against Leishmania major promastigotes at 1 uM after 72 hrs by MTT assay relative to control; format: functional
Serratia marcescens [29] = assay: Antibacterial activity against Serratia marcescens assessed as zone of inhibition by measuring activity index after 24 to 48 hrs by well diffusion method relative to amoxicillin; format: functional
Escherichia coli [30] = assay: Antibacterial activity against Escherichia coli assessed as zone of inhibition by measuring activity index after 24 to 48 hrs by well diffusion method relative to tetracycline; format: functional
Leishmania major [31] = assay: Antileishmanial activity against Leishmania major promastigotes at 10 uM after 72 hrs by MTT assay relative to control; format: functional
Serratia marcescens [32] = assay: Antibacterial activity against Serratia marcescens assessed as zone of inhibition by measuring activity index after 24 to 48 hrs by well diffusion method relative to penicillin G; format: functional
Leishmania major [33] = assay: Antileishmanial activity against Leishmania major promastigotes at 100 uM after 72 hrs by MTT assay relative to control; format: functional
Escherichia coli [34] = assay: Antibacterial activity against Escherichia coli assessed as zone of inhibition after 24 to 48 hrs by well diffusion method; format: functional
Serratia marcescens [35] = assay: Antibacterial activity against Serratia marcescens assessed as zone of inhibition after 24 to 48 hrs by well diffusion method; format: functional
[36] = test system: Staphylococcus epidermidis; assay: Antibacterial activity against Staphylococcus epidermidis assessed as zone of inhibition by measuring activity index after 24 to 48 hrs by well diffusion method relative to ampicillin; format: functional, organism-based
Staphylococcus aureus [37] = assay: Antibacterial activity against Staphylococcus aureus assessed as zone of inhibition after 24 to 48 hrs by well diffusion method; format: functional
Streptococcus pyogenes [38] = assay: Antibacterial activity against Streptococcus pyogenes assessed as zone of inhibition by measuring activity index after 24 to 48 hrs by well diffusion method relative to ampicillin; format: functional, organism-based

`CC[C@]1(O)C[C@H]2CN(CCc3c([nH]c4ccccc34)[C@@](C(=O)OC)(c3cc4c(cc3OC)N(C=O)[C@H]3[C@@](O)(C(=O)OC)[C@H](OC(C)=O)[C@]5(CC)C=CCN6CC[C@]43[C@@H]65)C2)C1` [VINCRISTINE] was tested, and the Activity (BHK-21 [1]) was 74.5%, the Activity (BHK-21 [2]) was 72.6% and the Activity (NCI-H157 [3]) was 70.9%. For the same compound, the Activity (BHK-21 [4]) was 70.9%, the Activity (NCI-H157 [5]) was “Dose-dependent effect” and the Activity [6] was 100%. The IC50 (HepG2) was 0.042 µg/mL (≈ 0.0509 µM), the Activity (NCI-H157 [7]) was 74.5% and the Activity (NCI-H157 [8]) was 72.6%. The Activity (NCI-H157 [9]) was 69.8%, the Activity (BHK-21 [10]) was “Dose-dependent effect” and the Activity (BHK-21 [11]) was 69.8%.

`COc1ccc(NC(=O)c2ccccc2C(=O)[O-])c([N+](=O)[O-])c1.[Na+]` was tested, and the Activity (BHK-21 [1]) was 53.5%, the Activity_index (Streptococcus pyogenes [12]) was “inactive” and the Activity_index (Staphylococcus aureus [13]) was “inactive”. The Activity (BHK-21 [2]) was 48.9%, the Activity (NCI-H157 [3]) was 35.2% and the “inhibition zone (IZ)” value (Klebsiella pneumoniae [14]) was “inactive”. For the same compound, the Activity_index (Klebsiella pneumoniae [15]) was “inactive”, the Activity_index [16] was “inactive” and the Activity (Leishmania major [17]) was 38.4%. For the same compound, the “inhibition zone (IZ)” value (Pseudomonas aeruginosa [18]) was “inactive”, the “inhibition zone (IZ)” value (Streptococcus pyogenes [19]) was “inactive” and the Activity_index (Staphylococcus aureus [20]) was “inactive”. For the same compound, the “inhibition zone (IZ)” value [21] was “inactive”, the Activity_index (Streptococcus pyogenes [22]) was “inactive” and the Activity (BHK-21 [4]) was 44.2%. The Activity (NCI-H157 [5]) was “Dose-dependent effect”, the Activity_index (Streptococcus pyogenes [23]) was “inactive” and the Activity_index (Staphylococcus aureus [24]) was “inactive”. For the same compound, the Activity_index (Serratia marcescens [25]) was 0.92, the Activity_index (Staphylococcus aureus [26]) was “inactive” and the Activity_index (Pseudomonas aeruginosa [27]) was “inactive”. The Activity (Leishmania major [28]) was 40.2%, the Activity_index (Serratia marcescens [29]) was 1.22 and the Activity_index (Escherichia coli [30]) was 2.5. The Activity (Leishmania major [31]) was 46.3%, the Activity (NCI-H157 [7]) was 52.2% and the Activity_index (Serratia marcescens [32]) was 0.92. For the same compound, the Activity (Leishmania major [33]) was 49.5%, the “inhibition zone (IZ)” value (Escherichia coli [34]) was 5 mm and the “inhibition zone (IZ)” value (Serratia marcescens [35]) was 7.33 mm. The Activity (NCI-H157 [8]) was 50.3%, the Activity (NCI-H157 [9]) was 25.1% and the Activity (BHK-21 [10]) was “Dose-dependent effect”. The Activity_index [36] was “inactive”, the “inhibition zone (IZ)” value (Staphylococcus aureus [37]) was “inactive” and the Activity (BHK-21 [11]) was 40.5%. For the same compound, the Activity_index (Streptococcus pyogenes [38]) was “inactive”.
